Molecules are shown by their SMILES.

In the test the target is Human DGAT2 (Homo sapiens (Human), UniProt Q96PD7). As to the kind of experiment: DGAT2 Enzymatic Activity Assay (triolein formation, LC/MS/MS). The test is classed as biochemical. As to conditions: hDGAT2 Sf-9 membrane prep; 25 μM diolein, 10 μM oleoyl-CoA; room temperature. The protocol: Sf-9 insect cells were maintained in Grace's insect cell culture medium with 10% heated-inactivated fetal bovine serum, 1% Pluronic F-68 and 0.14 μg/m Kanamycine sulfate in Erlenmeyer flasks at 28° C. in a shaker incubator. After infection with untagged hDGAT2 baculovirus at multiplicity of infection (MOI) 0.1 for 48 hours, cells were harvested. Cell pellets were suspended in buffer containing 10 mM Tris-HC (pH 7.5), 1 mM EDTA (pH 8.0), 250 mM sucrose and Complete Protease Inhibitor Cocktail (Roche Diagnostics Corp., Indianapolis, Ill.), and sonicated on ice. Membrane fractions were isolated by ultracentrifugation (100,000×g pellet), resuspended in the same buffer, and frozen (−80° C.) for later use. The protein concentration was determined with the BCA Protein Assay kit (Pierce Biotechnology Inc., Rockford, Ill.). Expression of protein levels was analyzed by immunoblotting with goat polyclonal DGAT2 antibody C-15 and donkey anti-goat IgG HRP (Santa Cruz Biotechnology, Inc., Santa Cruz, Calif.) followed by detection with ECL reagent (GE Healthcare, Piscataway, N.J.).
Chain of Human DGAT2 (Q96PD7 whole entry): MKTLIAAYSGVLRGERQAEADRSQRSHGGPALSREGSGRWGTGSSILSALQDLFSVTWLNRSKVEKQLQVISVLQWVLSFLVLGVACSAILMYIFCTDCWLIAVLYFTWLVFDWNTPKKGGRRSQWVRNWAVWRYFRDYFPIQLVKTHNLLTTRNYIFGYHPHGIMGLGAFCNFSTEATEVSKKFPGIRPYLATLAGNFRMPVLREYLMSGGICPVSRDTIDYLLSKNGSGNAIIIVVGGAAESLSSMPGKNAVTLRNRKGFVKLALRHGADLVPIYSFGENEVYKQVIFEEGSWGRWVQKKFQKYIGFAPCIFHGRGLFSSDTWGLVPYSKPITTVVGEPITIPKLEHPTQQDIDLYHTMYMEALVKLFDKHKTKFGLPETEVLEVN
LC/MS/MS analyses were performed using Thermal Fisher's LX4-TSQ Vantage system. This system consists of an Agilent binary high-performance liquid chromatography (HPLC) pumps and a TSQ Vantage triple quadrupole MS/MS instrument. For each sample, 2 μL samples from the top organic layer of in-plate liquid-liquid extraction were injected onto a Thermo Betabasic C4 column (2.1 mm×20 mm, 5 μm particle size). The samples were then eluted using the following conditions; mobile phase: MeOH/water with 0.1% ammonium format=92/8 (v/v), flow rate: 1 mL/min, temperature: 25 C. Data was acquired in positive mode using a heated electrospray ionization (HESI) interface. The operational parameters for the TSQ Vantage MS/MS instrument were a spray voltage of 3000 V, capillary temperature of 280° C., vaporizer temperature 400° C., shealth gas 60 arbitrary unit, Aux gas 40 arbitrary units, S-lens 113 and collision gas 0.16 Pascals. […] (SRM) chromatograms of triolein (Q1: 902.9>Q3:602.3) and internal standard ([…]) were collected for 40 sec. The peak area was integrated by Xcalibur Quan software. The ratio between the triolein generated in the reaction and spiked in internal standard was used to generate percentage inhibition and IC50 values. Compound percentage inhibition was calculated by the following formula: Inhibition %=1−[(compound response−low control)/(high control−low control)]×100%. Potent compounds were titrated and IC50 were calculated by 4 parameter sigmoidal curve fitting formula.
DGAT2 activity was determined by measuring the amount of enzymatic product triolein (1,2,3-Tri(cis-9-octadecenoyl)glycerol) using the membrane prep mentioned above. The assay was carried out in deep well 384 plates in a final volume of 40 μL at room temperature. The assay mixture contained the following: assay buffer (100 mM Tris.Cl, pH 7.0, 20 mM MgCl2, 5% ethanol), 25 μM of diolein, 10 μM of oleoyl-CoA and 10 ng/μL of DGAT2 membrane.
As to `CC1(NC(=O)c2ccc3c(-c4ccccc4Cl)nn(C4CCCCO4)c3c2)CCS(=O)(=O)C1` (centres unmarked) [Example 191, 3-(2-Chlorophenyl)-N-(3-methyl-1,1-dioxidotetrahydrothiophen-3-yl)-1-(tetrahydro-2H-pyran-2-yl)-1H-indazole-6-carboxamide], the IC50 came out at 182 nM. In the case of `C[C@@H](NC(=O)c1ccc2c(-c3ccccc3Cl)nn(-c3ccc(F)cc3)c2c1)c1ccc(C(F)(F)F)[n+]([O-])c1` [Example 3, 3-(2-chlorophenyl)-1-(4-fluorophenyl)-N-{(1R)-1-[1-oxido-6-(trifluoromethyl)pyridin-3-yl]ethyl}-1H-indazole-6-carboxamide] it was 155 nM; in that of `Cc1nc(C(C)NC(=O)c2ccc3c(-c4ccccc4Cl)nn(-c4ccc(F)cc4)c3c2)no1` (racemic) [Example 41, 3-(2-chlorophenyl)-1-(4-fluorophenyl)-N-[1-(5-methyl-1,2,4-oxadiazol-3-yl)ethyl]-1H-indazole-6-carboxamide], 519 nM; in that of `CC(NC(=O)c1ccc2c(-c3ccccc3Cl)nn(-c3ccc(F)cc3)c2c1)c1cn(C(=O)OC(C)(C)C)cn1` (racemic) [Example 7, tert-butyl 4-[1-({[3-(2-chlorophenyl)-1-(4-fluorophenyl)-1H-indazol-6-yl]carbonyl}amino)ethyl]-1H-imidazole-1-carboxylate], 164 nM.

In the case of `O=C(N[C@H]1CCC[C@@H]1O)c1ccc2c(-c3ccccc3Cl)nn(-c3ccc(F)cc3)c2c1` [Example 97, 3-(2-chlorophenyl)-1-(4-fluorophenyl)-N-[(1S,2S)-2-hydroxycyclopentyl]-1H-indazole-6-carboxamide], the IC50 amounted to 155 nM. The IC50 values of the last two compounds are within 1.5-fold of each other. In the case of `CC1(NC(=O)c2ccc3c(-c4cccc(-n5cccn5)c4)nn(-c4ccc(F)cc4)c3c2)CCS(=O)(=O)C1` (racemic) [Example 165, 1-(4-fluorophenyl)-N-(3-methyl-1,1-dioxidotetrahydrothiophen-3-yl)-3-[3-(1H-pyrazol-1-yl)phenyl]-1H-indazole-6-carboxamide] it was 7 nM.

As for `Cc1nnc(-c2cccc(-c3nn(-c4ccc(F)cc4)c4cc(C(=O)NC5(C)CCS(=O)(=O)C5)ccc34)c2)o1` (racemic) [Example 164, 1-(4-fluorophenyl)-N-(3-methyl-1,1-dioxidotetrahydrothiophen-3-yl)-3-[3-(5-methyl-1,3,4-oxadiazol-2-yl)phenyl]-1H-indazole-6-carboxamide], the IC50 turned out to be 28 nM.

The compound `CC1(NC(=O)c2ccc3c(-c4cccc(OC(F)F)c4)nn(-c4ccc(F)cn4)c3c2)CCS(=O)(=O)C1` (single isomer, unassigned) [Example 128-A, 3-[3-(difluoromethoxy)phenyl]-1-(5-fluoropyridin-2-yl)-N-(3-methyl-1,1-dioxidotetrahydrothiophen-3-yl)-1H-indazole-6-carboxamide] returned a 50% inhibitory concentration (IC50) of 3.3 nM. As to `N#Cc1ccc(Cl)c(-c2nn(-c3ccc(F)cc3)c3cc(C(=O)NC4CCS(=O)(=O)C4)ccc23)c1` (single isomer, unassigned) [Example 120-A, 3-(2-chloro-5-cyanophenyl)-N-(1,1-dioxidotetrahydrothiophen-3-yl)-1-(4-fluorophenyl)-1H-indazole-6-carboxamide], half-maximal inhibition (IC50) required 4.2 nM. In the case of `CC1(NC(=O)c2ccc3c(-c4ccccc4Cl)nn(-c4nnc(C(C)(C)C)s4)c3c2)CCS(=O)(=O)C1` (racemic) [Example 183, 1-(5-tert-butyl-1,3,4-thiadiazol-2-yl)-3-(2-chlorophenyl)-N-(3-methyl-1,1-dioxidotetrahydrothiophen-3-yl)-1H-indazole-6-carboxamide] it was 460 nM; in that of `O=C(NCc1cnoc1)c1ccc2c(-c3ccccc3Cl)nn(-c3ccc(F)cc3)c2c1` [Example 37, 3-(2-chlorophenyl)-1-(4-fluorophenyl)-N-(isoxazol-4-ylmethyl)-1H-indazole-6-carboxamide], 221 nM; in that of `COc1cccc(-c2nn(-c3ccc(F)cc3)c3cc(C(=O)NC4CCS(=O)(=O)C4)ccc23)c1` (single isomer, unassigned) [Example 131-A, N-(1,1-dioxidotetrahydrothiophen-3-yl)-1-(4-fluorophenyl)-3-(3-methoxyphenyl)-1H-indazole-6-carboxamide], 3 nM. Turning to `CC(NC(=O)c1ccc2c(-c3ccccc3Cl)nn(-c3ccc(F)cc3)c2c1)c1c[nH]cn1` (racemic) [Example 14, 3-(2-chlorophenyl)-1-(4-fluorophenyl)-N-[1-(1H-imidazol-4-yl)ethyl]-1H-indazole-6-carboxamide], the midpoint of inhibition, the IC50, lay at 78 nM. `COc1cc(-c2nn(-c3ccc(F)cc3)c3cc(C(=O)NC4CCS(=O)(=O)C4)ccc23)c(Cl)cn1` (single isomer, unassigned) [Example 137-A, 3-(5-chloro-2-methoxypyridin-4-yl)-N-(1,1-dioxidotetrahydrothiophen-3-yl)-1-(4-fluorophenyl)-1H-indazole-6-carboxamide] registered an IC50 of 5.4 nM. Compound `O=C(NCCS(=O)(=O)Nc1ccccn1)c1ccc2c(-c3ccccc3Cl)nn(-c3ccc(F)cc3)c2c1` [Example 55, 3-(2-chlorophenyl)-1-(4-fluorophenyl)-N-[2-(pyridin-2-ylsulfamoyl)ethyl]-1H-indazole-6-carboxamide] had an IC50 of 383 nM. Against the preceding compound, the IC50 is about 71-fold higher.

With `O=C(NC1CC[S+]([O-])C1)c1ccc2c(-c3ccccc3Cl)nn(-c3ccc(F)cc3)c2c1` (single isomer, unassigned) [Example 58-B, 3-(2-chlorophenyl)-1-(4-fluorophenyl)-N-(1-oxidotetrahydrothiophen-3-yl)-1H-indazole-6-carboxamide], half-maximal inhibition (IC50) required 608 nM. For `N#Cc1ccc(Cl)c(-c2nn(-c3ccc(F)cc3)c3cc(C(=O)NC4(CO)CCC4)ccc23)c1` [Example 118, 3-(2-chloro-5-cyanophenyl)-1-(4-fluorophenyl)-N-[1-(hydroxymethyl)cyclobutyl]-1H-indazole-6-carboxamide] the value was 5.5 nM; for `CC1(NC(=O)c2ccc3c(-c4cncc(F)c4)nn(-c4ccc(F)cc4)c3c2)CCS(=O)(=O)C1` (single isomer, unassigned) [Example 153-A, 1-(4-fluorophenyl)-3-(5-fluoropyridin-3-yl)-N-(3-methyl-1,1-dioxidotetrahydrothiophen-3-yl)-1H-indazole-6-carboxamide], 90 nM. As to `CC1(NC(=O)c2ccc3c(-c4ccccc4Cl)nn(-c4ccc(F)cn4)c3c2)CCS(=O)(=O)C1` (single isomer, unassigned) [Example 172-B, 3-(2-chlorophenyl)-1-(5-fluoropyridin-2-yl)-N-(3-methyl-1,1-dioxidotetrahydrothiophen-3-yl)-1H-indazole-6-carboxamide], the IC50 was 56 nM. Turning to `CC1(NC(=O)c2ccc3c(-c4cc(C#N)ccc4Cl)nn(-c4ccc(F)cc4)c3c2)CCS(=O)(=O)C1` (single isomer, unassigned) [Example 119-A, 3-(2-chloro-5-cyanophenyl)-1-(4-fluorophenyl)-N-(3-methyl-1,1-dioxidotetrahydrothiophen-3-yl)-1H-indazole-6-carboxamide], inhibition was half-maximal at 8.4 nM (IC50).

Compound `O=C(NC1CCS(=O)(=O)C1)c1ccc2c(-c3cccc(Cl)c3Cl)nn(-c3ccc(F)cc3)c2c1` (single isomer, unassigned) [Example 130-A, 3-(2,3-dichlorophenyl)-N-(1,1-dioxidotetrahydro-thiophen-3-yl)-1-(4-fluorophenyl)-1H-indazole-6-carboxamide] returned an IC50 of 3.6 nM. In the case of `Cc1cccc(-c2nn(-c3ccc(F)cc3)c3cc(C(=O)NC4(C)CCS(=O)(=O)C4)ccc23)c1` (single isomer, unassigned) [Example 156-A, 1-(4-fluorophenyl)-N-(3-methyl-1,1-dioxidotetrahydrothiophen-3-yl)-3-(3-methylphenyl)-1H-indazole-6-carboxamide] it was 11 nM; in that of `COC[C@H](C)NC(=O)c1ccc2c(-c3ccccc3Cl)nn(-c3ccc(F)cc3)c2c1` [Example 12, 3-(2-chlorophenyl)-1-(4-fluorophenyl)-N-[(1S)-2-methoxy-1-methylethyl]-1H-indazole-6-carboxamide], 85 nM.

The record behind these values is US11104690B2, “Indazole derivatives useful as inhibitors of diacylglyceride O-acyltransferase 2” (Merck Sharp & Dohme Corp., priority 2016, dated 2021).
